Laboratory results from US6352996B1, “Liposomal prodrugs comprising derivatives of camptothecin and methods of treating cancer using these prodrugs” (priority 1999, dated 2002).
Like-named read-outs stand apart in the source and are kept apart here.

Assays:
2774 ovarian carcinoma = details: for tumor size: day 41 (FIG. 13)
Protocol: (§1) One group of six nude mice where treated interstomach with 10 or 20 mg,/kg body weight Compound IA in cottonseed oil per day for five consecutive days with two day intervals of no treatment (i.e., five days of treatment then two days no treatment, and five day treatment and so on). Another group of six nude mice were treated with 10 or 20 mg/kg body weight Compound IA in the same manner. There were also two control groups of six nude mice each. The designation of “fast” means no food was fed to the mice for at least 12 hours before treatment and the designation of “non-fast” means fed normally. Thus, in this experiment, there were 4 groups of mice with 6 mice in each group.
The route of administration and the dosage regimen were the same as in FIG. 9 except there were only 5 mice in each group and only one control group was used.

BRO melanoma = details: 20 mg/kg intrastomach, 20 days (FIG. 10)
Text: (§2) Human malignant carcinomas of the colon, breast, lung, ovary, stomach, pancreas, bladder, prostate, osteosarcoma and malignant melanomas were heterotransplanted directly from patients into the nude mice and passaged serially. In particular, the tumors CLO, MUR, CAS, SW 48, SQU and BRO as described in Giovanella, B. C., Stehlin, J. S., Shepard, R. C. and Williams, L. J. “Correlation between response to chemotherapy of human tumors in patients and in nude mice.” Cancer 52: 1146-1152; 1983, tumor SCH as described in Heim, S., Mandahl, N., Arheden, K., Giovanella, B. C., Yim, S. O., Stehlin, J. S., Jr. and Mitebman, F. “Multiple karyotypic abnormalities including structural rearrangements of 11P in cell lines from malignant melanomas.” Cancer Genet. Cytogent, 35:5-20; 1988, and Verschraegen, C., Ciovanella, B. C., Mendoza, J. T., Kozielski, A. J. and Stehlin, J. S., Jr. “Specific organ metastases of human melanoma cells injected into the arterial circulation of nude mice.” Anticancer Res., In Press, and tumor PC-3 as described in Invest. Urol. 17, 16-23, 1979, were used. […]

DOY lung carcinoma = details: 10 and 20 mg/kg intrastomach, day 34 (FIG. 12)
Text: as §2

McC colon carcinoma = details: 20 mg/kg intrastomach or intramuscular twice a week, day 11 to day 25 (FIG. 14)
Protocol: as §1

human tumor xenografts = details: nude mice
SW48 colon carcinoma = details: interstomach 10 or 20 mg/kg in cottonseed oil, 5 days on/2 days off, fast and non-fast, day 13-34 (FIG. 9)
Text: (§3) Swiss nude mice of the NIH high fertility strain were bred and maintained pathogen-free in a laboratory. (Giovanella, B. C. and Stehlin, J. S. “Heterotransplantation of human malignant tumors in ‘nude’ thymusless mice. I. Breeding and maintenance of ‘nude’ mice.” J. Natl. Cancer Inst. 51: 615-619; 1973.)
as §2

SQU colon carcinoma = details: 10 mg/kg intrastomach or intramuscular, until day 111 (FIG. 15)
Text: as §3, §2

[1] = Closed lactone form in human plasma after oral administration; details: for % present as closed lactone form in human blood/plasma: after oral administration (FIGS. 2, 4, 5, 7, 8)
BRE stomach carcinoma = details: 10 and 20 mg/kg intrastomach, until day 34 (FIG. 11)
Text: Human malignant carcinomas of the colon, breast, lung, ovary, stomach, pancreas, bladder, prostate, osteosarcoma and malignant melanomas were heterotransplanted directly from patients into the nude mice and passaged serially. […] Tumors DOY and HAR (undifferentiated non-oat cell carcinomas of the lung), DIL (a poorly differentiated squamous cell carcinoma of the lung), SPA (a moderately differentiated adenocarcinoma of the lung), LAN (an undifferentiated carcinoma of the ovary), and BRE (a moderately differentiated adenocarcinoma of the stomach) where heterotransplanted. For the experiments, the tumor tissue was finely minced in complete MEM medium and 0.5 ml of a 10% v/v suspension was inoculated subcutaneously on the upper back of groups of 10-30 mice. When the tumors became palpable and measurable in all the animals, they were divided into groups of 4-8 and treated with the desired dose of the drug in experiment or with the vehicle only for the controls,
The dosage regimen and manner of administration are the same as in FIG. 9 except there were 5 mice per group and only one control group.

[2] = Stability of lactone form in human plasma; format: in vitro ADME; details: for Percent in plasma (lactone, percent of the initial lactone amount added): 1 μg/ml
Protocol: CPT or SF6A lactone was added to human plasma (1 μg/ml) and an incubation and lactone determination were made as described in Example 15. The lactone amount at each time-point was detected after removing the carboxylate form, and subsequently was calculated as percent of the initial lactone amount added. The results shown in this Table below were derived from one of the three independent experiments performed using different incubation times. The pattern of quantitation of the lactones was similar in all three experiments.

U-937 cells = assay: Growth inhibition of U-937 cells treated with CPT esters; format: cell-based; details: 0.2 μM, 120 hr, percent of exponential growth of untreated cells (100%), mean of four estimates
Protocol: Growth inhibition of U-937 cells treated with various CPT esters.
Each identified compound was added to reach a culture of U-937 cell having a final concentration of 0.2 μM. The treatment time was for 120 hr. Growth inhibition in each of the treated cultures was then estimated as a percent of the exponential growth of the cells that was considered 100%. Each estimate was the mean value of four estimates.

[3] = cited from earlier work
[4] = Closed lactone form in plasma of mice after intrastomach administration; format: in vivo; details: mice, plasma after intrastomach administration (FIG. 1)

## CCC(=O)O[C@]1(CC)C(=O)OCc2c1cc1n(c2=O)Cc2cc3c([N+](=O)[O-])cccc3nc2-1 [Prodrug 11, 9-Nitrocamptothecin-20-O-propionate]
2774 ovarian carcinoma; 5 mice per group, day 41
  survival: all mice survived the experiment in each group
2774 ovarian carcinoma; higher dosage (10 and 20 mg/kg tested) intrastomach
  tumor size: quite effective in reducing the tumor size
2774 ovarian carcinoma; lesser dosage (10 and 20 mg/kg tested) intrastomach
  tumor size: steady increase in tumor size
BRO melanoma
  tumor size: decreased in size
DOY lung carcinoma
  tumor size: dramatic reduction
McC colon carcinoma
  tumor size: increased slightly but then stabilized
Human tumor xenografts
  antitumor activity against xenografts of human tumors: even higher than the camptothecin analogue, Prodrug 2
SW48 colon carcinoma
  tumor size: decline in the tumor size
SQU colon carcinoma
  tumor size: essentially stabilized
[1]
  % present as closed lactone form in human blood/plasma: 68.7%
[1]; human, oral administration, versus CPT or 9NC
  increase of lactone share over the parent compound: more than twentyfold
BRE stomach carcinoma
  tumor size: prevention of the growth in the tumor size

## CC[C@@]1(O)C(=O)OCc2c1cc1n(c2=O)Cc2cc3ccccc3nc2-1 [CPT, 20(S)-camptothecin]
[2]; Time 0 Hr
  Lactone % in Human Plasma: 100%
[2]; Time 1 Hr
  Lactone % in Human Plasma: 12%
[2]; Time 2 Hr
  Lactone % in Human Plasma: 0.5%
[2]; Time 4 Hr
  Lactone % in Human Plasma: 0%
[2]; Time 6 Hr
  Lactone % in Human Plasma: 0%
[2]; human plasma
  metabolite detected: the only metabolite detected is the ring-opened sodium carboxylate salt
[2]; human plasma, incubation time 0.0 hr
  Percent in plasma (lactone, percent of the initial lactone amount added): 100.0%
[2]; human plasma, incubation time 0.5 hr
  Percent in plasma (lactone, percent of the initial lactone amount added): 40.0%
[2]; human plasma, incubation time 1.0 hr
  Percent in plasma (lactone, percent of the initial lactone amount added): 12.0%
[2]; human plasma, incubation time 2.0 hr
  Percent in plasma (lactone, percent of the initial lactone amount added): 0.5%
[2]; human plasma, incubation time 4.0 hr
  Percent in plasma (lactone, percent of the initial lactone amount added): 0.0%
[2]; human plasma, incubation time 6.0 hr
  Percent in plasma (lactone, percent of the initial lactone amount added): 0.0%
[2]; human plasma, incubation time 27.0 hr
  Percent in plasma (lactone, percent of the initial lactone amount added): 0.0%
[2]; human, human plasma, read-out: half-life time of the drug with lactone intact
  half-life: 30 min
U-937 cells
  Growth %: 0.0%
[3]
  solubility in water: insoluble in water
[4]
  closed lactone form, share of the area under the curve: approximately 54%
[1]
  % present as closed lactone form in human blood/plasma: 0.4%
[1]; humans, after oral administration (FIG. 2)
  closed ring lactone form, share of the area under the curve: about 0.4%
